# Where two headings read alike, the source gives them in different places.
# What was measured:
# [1] = biological target: Rac-1 (Homo sapiens (Human), UniProt P63000); test: Rac and Rho inhibition assay; assay type: binding; settings: read-out: Rac-1 % Inh.
# Description: (§1) Buffer-I: • 50 mM Tris, pH 7.5 • 150 mM NaCl (optional) • 1 mM MgCl2 • 1 mM DTT. • KRas G12D mutant protein was expressed as a His-tagged protein. Purified His-KRas G12D protein was diluted in buffer-I to a final concentration of 3-10 μg/ml. • 200 μl of the diluted His-KRas G12D protein was added to a nickel coated 96 well plate and incubated overnight at 4° C. • The next day, wells were washed 3× in 200 μl of Buffer-I. • Then 200 μl of Buffer-I were added to each well in the presence of 1% DMSO. • Tested compounds were added to the protein-coated wells at a concentration of 20 μM, and incubated for 3 hours at room temperature. While performing IC50 measurements a serial dilution of all tested concentrations was prepared.
# (§2) Then 22 μl of Cy3-GTP or Cy5-GTP was added to each well. The labeled GTP was incubated for 45 min. at room temperature. • Following GTP incubation, wells were washed 3× in Buffer-I, and 200 μl of Buffer-I were added to each well. • Following washes, the amount of bound labeled-GTP was measured with an Eppendorf AF2200 plate reader.
# (§3) By substituting KRas G12D mutant protein with either Rac-1 or Rho-A under the assay conditions described in Example 5, Rac-1 and Rho-A inhibition, respectively, were each determined.
# [2] = biological target: Rho-A (Homo sapiens (Human), UniProt P61586); test: Rac and Rho inhibition assay; assay type: binding; settings: read-out: Rho-A % Inh.
# Description: as §1, §2, §3
# [3] = biological target: KRas G12D/Q61H double mutant (Homo sapiens (Human), UniProt P01116, G12D/Q61H); test: Ras GTP binding domain inhibition assay
# Description: as §1, §2
# By substituting KRas G12D mutant protein with KRas G12C mutant, KRas wild type, KRas Q61H mutant, KRas G12D/Q61H double mutant or KRas G12C/Q61H double mutant under the assay conditions described above, KRas G12C mutant KRas wild type, KRas Q61H mutant, KRas G12D/Q61H double mutant and KRas G12C/Q61H double mutant inhibition, respectively, were each determined.
# [4] = test system: IL6; test: Mouse IL6 quantification assay (LPS-stimulated RAW 264.7, ELISA); assay type: cell-based; settings: RAW 264.7 murine leukemia virus transformed macrophage cell lines, LPS stimulation; for inhibition at 30 µM: Mus musculus, RAW264.7, 30 μM, read-out: IL-6 % Inhibition at 30 μM
# Description: (§4) Cell lines: Abelson murine leukemia virus transformed macrophage cell line RAW 264.7 was purchased from ATCC and grown in complete DMEM-High Glucose medium supplemented with penicillin (100 U/mL), streptomycin (100 μg/mL), and 10% heat-inactivated FBS at 37° C. in a humidified incubator with 5% CO2.
# (§5) Method: Cells were plated at 40000 cells/well density in a 96-wells plate. After a 3-hour incubation, macrophages were starved with DMEM plus 0.5% FBS o/n. The next day the small molecules to be tested were added to the cells in the final concentration of 30 μM (with 0.3% DMSO) 3 hours prior to LPS stimulation (100 ng/ml). After LPS stimulation cells were incubated at 37° C. for 16h. At the end of the incubation period, culture media were collected and production of LPS-induced TNFα and IL6 cytokine was measured using ELISA detection kits.
# (§6) Sandwich ELISA: The ELISA Immunoassays Quantikine Mouse TNF-alpha (catalog number MTA00B) and IL6 (catalog number M6000B) were purchased from R&D Systems Inc., Minneapolis, Minn. These 4.5 hours solid phase ELISAs were used to measure mouse TNFα or IL6 levels in macrophages culture supernatants. Assays were executed according to the manufacturer specifications.
# [5] = test system: TNFα; test: Mouse TNF alpha quantification assay (LPS-stimulated RAW 264.7, ELISA); assay type: cell-based; settings: RAW 264.7 murine leukemia virus transformed macrophage cell lines, LPS stimulation; for inhibition at 30 µM: Mus musculus, RAW264.7, 30 μM, read-out: TNF-α % Inhibition at 30 μM
# Description: as §4, §5, §6
# [6] = at 20 μM, read-out: KRas G12D Q61H % Inh.
# [7] = 20 μM compound, read-out: % Inhibition at 20 μM, KRas G12D Q61H
# [8] = 20 μM, read-out: KRas G12D Q61H % Inh.
# Chain of KRas G12D/Q61H double mutant (P01116-2 other isoform, or with tags, fused parts or gaps G12D/Q61H): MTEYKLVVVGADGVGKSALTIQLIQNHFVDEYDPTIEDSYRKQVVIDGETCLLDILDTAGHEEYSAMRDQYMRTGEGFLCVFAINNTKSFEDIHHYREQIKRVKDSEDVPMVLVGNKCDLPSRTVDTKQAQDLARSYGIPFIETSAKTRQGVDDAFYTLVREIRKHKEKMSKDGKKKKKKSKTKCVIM
# Chain of Rho-A (P61586 whole entry): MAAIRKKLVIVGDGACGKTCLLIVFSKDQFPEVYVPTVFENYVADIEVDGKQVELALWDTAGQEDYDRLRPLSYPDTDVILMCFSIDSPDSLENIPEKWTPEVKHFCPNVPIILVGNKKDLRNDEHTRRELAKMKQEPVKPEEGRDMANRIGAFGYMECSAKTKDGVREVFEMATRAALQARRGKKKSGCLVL
smiles,measurement,setting,value
O=C(NCCc1cnc(O)nc1)c1csc2nc(-c3ccccn3)nc(N3CCSCC3)c12 [drawing 3752],inhibition at 20 µM,[1],51 to 75%
same,inhibition at 20 µM,[2],51 to 75%
same,inhibition at 20 µM,[3]; [6],25 to 50%
COCc1ccc(-c2csc3c(O)nc(-c4ccccn4)nc23)cc1F,inhibition at 20 µM,[1],76 to 100%
COc1cnc(CNC(=O)c2c(C)sc3c(O)nc(-c4ccccn4)nc23)[nH]c1=O,inhibition at 20 µM,[1],1 to 25%
same,inhibition at 20 µM,[2],1 to 25%
COc1ccc(CCNC(=O)c2csc3nc(-c4ccccn4)nc(N4CCSCC4)c23)cn1 [drawing 3751],inhibition at 20 µM,[1],25 to 50%
same,inhibition at 20 µM,[2],1 to 25%
same,inhibition at 20 µM,[3]; [6],25 to 50%
CN(C)CCOc1cccc(-c2csc3c(O)nc(-c4ccccn4)nc23)c1,inhibition at 20 µM,[1],76 to 100%
same,inhibition at 20 µM,[2],76 to 100%
Oc1nc(-c2ccccn2)nc2c(-c3cnc4ccccc4c3)csc12,inhibition at 20 µM,[1],51 to 75%
same,inhibition at 20 µM,[2],51 to 75%
CCN(Cc1cnc(S(=O)(=O)N(C)C)o1)c1ccccc1,inhibition at 20 µM,[3]; [7],25 to 50%
Cc1ccc(CC(=O)Nc2nnc(-c3ccccn3)[nH]2)cc1,inhibition at 30 µM,[4],51 to 75%
O=C(c1csc2c(O)nc(-c3ccccn3)nc12)N1CCNC(c2ccc(Cl)cc2)C1 (centres unmarked),inhibition at 20 µM,[1],76 to 100%
same,inhibition at 20 µM,[2],76 to 100%
O=[N+]([O-])c1cc(C(F)(F)F)ccc1Sc1nc2c(c(C(F)(F)F)n1)CCCC2,inhibition at 20 µM,[3]; [8],51 to 75%
CC(C)Cc1csc2c(N)nc(-c3ccccn3)nc12,inhibition at 30 µM,[5],76 to 100%
same,inhibition at 30 µM,[4],76 to 100%
CCOc1ccc(C(F)(F)F)cc1NCc1ncc(C)o1,inhibition at 20 µM,[3]; [7],25 to 50%
Nc1nc(-c2ccccn2)nc2c(C3CCCCC3)csc12,inhibition at 30 µM,[5],0%
same,inhibition at 30 µM,[4],0%
CC(C)COc1ccc(-c2csc3c(O)nc(-c4ccccn4)nc23)cn1,inhibition at 20 µM,[1],76 to 100%
CCOC(=O)c1cnc(N(C2CC2)S(=O)(=O)c2ccc(OC)c(C)c2)s1,inhibition at 20 µM,[3]; [7],1 to 25%
O=C(c1csc2c(O)nc(-c3ccccn3)nc12)N1CCN(c2ccc(O)c(O)c2)CC1,inhibition at 20 µM,[1],76 to 100%
same,inhibition at 20 µM,[2],76 to 100%
same,inhibition at 20 µM,[3]; [6],51 to 75%
CCC1=CC2C(=O)NC(c3ccccn3)=NC2S1 (centres unmarked),inhibition at 20 µM,[3]; [7],25 to 50%
Nc1cccc(-c2csc3c(N)nc(-c4ccccn4)nc23)n1,inhibition at 30 µM,[5],26 to 50%
same,inhibition at 30 µM,[4],76 to 100%
COC(=O)c1c(C)sc2nc(-c3ccccn3)nc(N)c12,inhibition at 20 µM,[1],25 to 50%
same,inhibition at 20 µM,[2],51 to 75%
O=C(c1csc2c(O)nc(-c3ccccn3)nc12)N1CCNC(c2ccc(O)cc2)C1 (centres unmarked),inhibition at 20 µM,[1],76 to 100%
same,inhibition at 20 µM,[2],76 to 100%
O=C1C2C=CC=CC2OC(O)C1Cc1cc(Cl)c2cccnc2c1O (centres unmarked),inhibition at 20 µM,[3]; [7],25 to 50%
Oc1nc(-c2ccccn2)nc2c(-c3cc(C(F)(F)F)ccc3F)csc12,inhibition at 20 µM,[2],1 to 25%
Cc1sc2c(O)nc(-c3ccccn3)nc2c1-c1ccccc1,TNF-α % Inhibition at 30 μM,[5],A (A = 1-25% inhibition)
same,IL-6 % Inhibition at 30 μM,[4],C (C = 51-75% inhibition)
Cc1sc2c(N)nc(-c3ccccn3)nc2c1-c1ccccc1Cl,inhibition at 30 µM,[5],51 to 75%
same,inhibition at 30 µM,[4],51 to 75%
CN(C(=O)c1ccc(COc2ccccc2F)o1)c1cccs1,inhibition at 20 µM,[3]; [7],25 to 50%
O=c1[nH]c(-c2cncc(OCC(F)F)c2)nc2cc(F)c(F)cc12,inhibition at 20 µM,[3]; [7],25 to 50%
O=C(O)c1csc2nc(-c3ccccn3)nc(O)c12,inhibition at 30 µM,[5],1 to 25%
same,inhibition at 30 µM,[4],1 to 25%
COCCCCNC(=O)c1csc2nc(-c3ccccn3)nc(O)c12,inhibition at 20 µM,[1],1 to 25%
same,inhibition at 20 µM,[2],1 to 25%
same,inhibition at 20 µM,[3]; [6],1 to 25%
COCCNc1nc(-c2nccn2C)nc2sc(-c3ccccc3)c(-c3ccccc3)c12 [drawing 3879],inhibition at 20 µM,[1],76 to 100%
same,inhibition at 20 µM,[2],51 to 75%
COc1ccc(N2CCN(C(=O)c3csc4c(O)cc(-c5ccccn5)cc34)CC2)cc1O,inhibition at 20 µM,[1],76 to 100%
same,inhibition at 20 µM,[2],76 to 100%
same,inhibition at 20 µM,[3]; [6],1 to 25%
O=C(c1csc2c(O)nc(-c3ccccn3)nc12)N1CCNC(c2cn[nH]c2)C1 (centres unmarked),inhibition at 20 µM,[1],76 to 100%
COc1ccc(CCNC(=O)c2csc3nc(-c4ccccn4)nc(N4CCSCC4)c23)cn1 [drawing 2280],inhibition at 30 µM,[5],0%
same,inhibition at 30 µM,[4],26 to 50%
FC(F)(F)c1cccc(N2CCN(c3cc(Cl)nc4ncnn34)CC2)c1,inhibition at 20 µM,[3]; [7],25 to 50%
Cc1c(C(=O)N2CCN(c3ccccc3)CC2)sc2c(O)nc(-c3ccccn3)nc12,inhibition at 20 µM,[2],76 to 100%
Cc1sc2c(O)nc(-c3ccccn3)nc2c1C(=O)N1CCN(Cc2cccc(O)c2)CC1,inhibition at 20 µM,[1],76 to 100%
same,inhibition at 20 µM,[2],76 to 100%
CN(C)Cc1ccc(-c2csc3c(O)nc(-c4ccccn4)nc23)cc1F,inhibition at 20 µM,[1],76 to 100%
same,inhibition at 20 µM,[2],76 to 100%
COC(=O)c1csc2nc(-c3ccccn3)nc(O)c12,inhibition at 30 µM,[5],0%
same,inhibition at 30 µM,[4],51 to 75%
Oc1nc(-c2ccccn2)nc2c(-c3cncc(C(F)(F)F)c3)csc12,inhibition at 20 µM,[1],1 to 25%
CCC(C)c1csc2c(OC)nc(-c3ccccn3)nc12 (centres unmarked),inhibition at 20 µM,[1],76 to 100%
Cc1cc2nc(-c3ccccn3)nc(O)c2s1 [drawing 3817],inhibition at 20 µM,[1],76 to 100%
same,inhibition at 20 µM,[2],76 to 100%
C=CCc1cc(COC)ccc1OCC(=O)NCc1ccc(OC)cc1,inhibition at 20 µM,[3]; [7],25 to 50%
C=C(CNc1nc(-c2ccccn2)nc2scc(-c3ccccc3)c12)NC,inhibition at 20 µM,[3]; [7],25 to 50%
Cc1sc2c(O)nc(-c3ccccn3)nc2c1Br [drawing 2319],IL-6 % Inhibition at 30 μM,[4],A (A = 1-25% inhibition)
CCOC(=O)c1ccnc(N2CCC(C)CC2c2ccc(CC)o2)c1[N+](=O)[O-] (centres unmarked),inhibition at 20 µM,[3]; [8],51 to 75%
Oc1nc(-c2ccccn2)nc2c(C3CC3)csc12,inhibition at 20 µM,[2],51 to 75%
Cc1sc2c(O)nc(-c3ccccn3)nc2c1Br [drawing 2383],TNF-α % Inhibition at 30 μM,[5],0 (0 = 0% inhibition)
Oc1nc(-c2ccccn2)nc2c(-c3ccc4c(c3)CCCO4)csc12,inhibition at 20 µM,[2],51 to 75%
Oc1nc(-c2ccccn2)nc2c(-c3ccccc3C(F)F)csc12,inhibition at 20 µM,[1],76 to 100%
same,inhibition at 20 µM,[2],76 to 100%
O=C(c1ccc(S(=O)(=O)N2CCOCC2)cc1)N(Cc1ccccc1)Cc1cccs1,inhibition at 20 µM,[3]; [7],1 to 25%
Cn1cc(-c2nc(C(=O)Nc3nnc(-c4ccccn4)[nH]3)cs2)cn1,inhibition at 30 µM,[5],0%
Cc1cc2nc(-c3ccccn3)nc(O)c2s1 [drawing 2263],inhibition at 30 µM,[5],1 to 25%
same,inhibition at 30 µM,[4],1 to 25%
O=C(NCCc1cnc(O)nc1)c1csc2nc(-c3ccccn3)nc(N3CCSCC3)c12 [drawing 2281],inhibition at 30 µM,[5],0%
same,inhibition at 30 µM,[4],51 to 75%
CCC1N=C(C)C=C1c1csc2c(O)nc(-c3ccccn3)nc12 (centres unmarked),inhibition at 20 µM,[1],51 to 75%
same,inhibition at 20 µM,[2],76 to 100%
same,inhibition at 20 µM,[3]; [6],51 to 75%
O=c1nc(-c2ccccn2)[nH]c2ccsc12,inhibition at 20 µM,[3]; [8],51 to 75%
OC[C@H]1O[C@@H](c2csc3c2N=C(c2ccccn2)NC3O)[C@H](O)[C@@H]1O (some centres unmarked) [drawing 3871],inhibition at 20 µM,[1],51 to 75%
same,inhibition at 20 µM,[2],51 to 75%
Nc1nc(-c2ccccn2)nc2c(C3CCCC3)csc12,inhibition at 30 µM,[5],26 to 50%
same,inhibition at 30 µM,[4],51 to 75%
COCC(C)Nc1nc(-c2ccccc2)nc2sc(-c3ccncc3)c(-c3ccccc3)c12 (centres unmarked),inhibition at 30 µM,[5],26 to 50%
same,inhibition at 30 µM,[4],0%
COc1cc(-c2csc3c(O)nc(-c4ccccn4)nc23)cnc1C(F)(F)F,inhibition at 20 µM,[2],51 to 75%
OC[C@H]1O[C@@H](c2csc3c2N=C(c2ccccn2)NC3O)[C@H](O)[C@@H]1O (some centres unmarked) [drawing 2388],inhibition at 30 µM,[5],26 to 50%
same,inhibition at 30 µM,[4],1 to 25%
Oc1nc(-c2ccccn2)nc2c(-c3cccnc3)c(C(F)(F)F)sc12,inhibition at 30 µM,[5],0%
same,inhibition at 30 µM,[4],51 to 75%
